In the C3SDB collision cross section collection:

Conditions: [M+Na]+; instrument: DT; stepped-field

Row | collision cross section (N2) [Å²] | SMILES
1 | 279.16 | CCCCCCCC/C=C\CCCCCCCCCC(=O)O[C@H](COC(=O)CCCCCCCCCCC)COP(=O)([O-])OCC[N+](C)(C)C [PC(32:01)]
2 | 281.79 | CCCCC/C=C\C/C=C\C/C=C\C/C=C\CCCCCC(=O)O[C@H](COC(=O)CCCCCCC/C=C\CCCCCCCC)COP(=O)(O)O [PA(40:05)]
3 | 287.02 | CCCCCCCC/C=C\C/C=C\CCCCC(=O)O[C@H](COC(=O)CCCCCCC/C=C\CCCCCCCC)COP(=O)([O-])OCC[N+](C)(C)C [PC(36:03)]
4 | 281.52 | CCCCCCCCCCCCC=CC[C@@H](O)[C@H](CO[C@@H]1O[C@H](CO)[C@@H](O)C(O)C1O)NC(=O)CC=CCCCCCCCCCCCCCC (some centres undefined) [GlcCer(36:02)]

Same assay, conditions: [M-H]-; instrument: DT; stepped-field

Row | collision cross section (N2) [Å²] | SMILES
5 | 269.84 | CCCCC/C=C\C/C=C\CCCCCCCCCC(=O)O[C@H](COC(=O)CCCCCCC/C=C\CCCCCC)COP(=O)(O)OCCN [PE(36:03)]

Conditions: [M+H]+; instrument: TW; Major Mix IMS/Tof Calibration Kit (Waters)

Row | SMILES | collision cross section (N2) [Å²]
6 | COc1ccc(Cc2nccc3cc(OC)c(OC)cc23)cc1OC [Papaverine] | 185.3
7 | COCCCC/C(=N\OCCN)c1ccc(C(F)(F)F)cc1 [Fluvoxamine] | 177
8 | CC(=O)O[C@H]1C=C[C@H]2[C@H]3Cc4ccc(O)c5c4[C@@]2(CCN3C)[C@H]1O5 [Heroin-M 6-MAM] | 175.1
9 | Cc1cccc(Cc2cnc[nH]2)c1C [Detomidine] | 146.8
10 | COc1cc(CCN)c(OC)cc1I [2C-I] | 157.7
11 | CCCCn1cc(C(=O)c2cccc3ccccc23)c2ccccc21 [JWH-073] | 182.5
12 | C=CCN1CC[C@]23c4c5ccc(O)c4O[C@H]2C(=O)CC[C@@]3(O)[C@H]1C5 [Naloxone] | 171.8
13 | CCN(CC)CCOC(=O)c1ccc(N)cc1 [Procaine] | 154.6
14 | COc1ccc(N2CCNCC2)cc1 [N-(p-Methoxyphenyl)piperazine (pMeOPP)] | 141.9
15 | CN1c2ccccc2C(NCCCCCCC(=O)O)c2ccc(Cl)cc2S1(=O)=O (centres undefined) [Tianeptine] | 197
16 | O=C1CN=C(c2ccccc2)c2cc(Cl)ccc2N1CC(F)(F)F [Halazepam] | 170.9
17 | CN1[C@@H]2C[C@@H](OC(=O)[C@H](CO)c3ccccc3)C[C@H]1[C@@H]1O[C@@H]12 [Scopolamine] | 171.1
18 | Oc1ccc2c3c1OC1C(O)C=CC4C(C2)NCCC341 (centres undefined) [Morphine-M Nor] | 161.5
19 | C#CCN(C)[C@H](C)Cc1ccccc1 [Selegiline] | 142.1
20 | CCCNCC(O)COc1ccccc1C(=O)CCc1ccccc1 (centres undefined) [Propafenone] | 178.5
21 | CC(C)NCC(O)COc1ccc(COCCOC(C)C)cc1 (centres undefined) [Bisoprolol] | 192.2
22 | CN(C)CCc1c[nH]c2ccccc12 ["NN-Dimethyltryptamine"] | 143.5
23 | CCN(CC)CCNC(=O)c1cc(Cl)c(N)cc1OC [Metoclopramide] | 173.2
24 | CN1C(=O)C(O)N=C(c2ccccc2Cl)c2cc(Cl)ccc21 (centres undefined) [Lormetazepam] | 169.5
25 | C[C@]12CC[C@H]3[C@@H](CCC4=CC(=O)CC[C@@H]43)[C@@H]1CC[C@@H]2O [Nandrolone] | 167.5
26 | CN/C(=C\[N+](=O)[O-])NCCSCc1csc(CN(C)C)n1 [Nizatidine] | 168.4
27 | FC(F)(F)c1cccc(N2CCNCC2)c1 [m-Trifluorophenylpiperazine (TFMPP)] | 151.1
28 | COc1cc2nc(N(C)CCCNC(=O)C3CCCO3)nc(N)c2cc1OC (centres undefined) [Alfuzosin] | 194.6

Continued, values first:

Row | collision cross section (N2) [Å²] | SMILES
29 | 183.2 | Fc1ccc([C@@H]2CCNC[C@H]2COc2ccc3c(c2)OCO3)cc1 [Paroxetine]
30 | 144.6 | c1ccc([C@H]2CN3CCSC3=N2)cc1 [Levamisole]
31 | 167.6 | CN(C)CC/C=C1\c2ccccc2CC(O)c2ccccc21 (centres undefined) [Amitriptylin-M (E)-10-hydroxy]
32 | 170.1 | CN(C)CC/C=C1/c2ccccc2Sc2ccc(Cl)cc21 [Chlorprothixene]
33 | 180.8 | CN1[C@@H]2CC[C@H]1C[C@@H](OC(c1ccccc1)c1ccccc1)C2 [Benztropine]
34 | 163.9 | OC(Cn1cncn1)(Cn1cncn1)c1ccc(F)cc1F [Fluconazole]
35 | 144 | Clc1cccc(Cl)c1NC1=NCCN1 [Clonidine]
36 | 213.8 | O=c1[nH]ccn1CCN1CCC(c2cn(-c3ccc(F)cc3)c3ccc(Cl)cc23)CC1 [Sertindol-M dehydro]
37 | 150.4 | Cc1[nH]c(=O)c(C#N)cc1-c1ccncc1 [Milrinone]
38 | 174.3 | CNC[C@@H](C)CN1c2ccccc2Sc2ccc(OC)cc21 [Levomepromazine-M N-desmethyl]
39 | 164.5 | CN1CCN2c3ccccc3Cc3ccccc3C2C1 (centres undefined) [Mianserin]
40 | 164.3 | CN(C)CCC=C1c2ccccc2COc2ccccc21 [Doxepin]
41 | 200.3 | CCCCc1nc(Cl)c(CO)n1Cc1ccc(-c2ccccc2-c2nn[nH]n2)cc1 [Losartan]
42 | 168.4 | Clc1ccc(C(c2ccccc2)N2CCNCC2)cc1 (centres undefined) [Cetirizine-M N-desalkyl]
43 | 199.7 | O=C(O)c1cc(/N=N/c2ccc(S(=O)(=O)Nc3ccccn3)cc2)ccc1O [Sulfasalazine]
44 | 206.2 | C(=C\c1ccccc1)/CN1CCN(C(c2ccccc2)c2ccccc2)CC1 [Cinnarizine]
